From US20230398130A1, “METHODS AND COMPOSITIONS FOR DIFFERENTIATING STEM CELLS” (Massachusetts Institute of Technology, priority 2020, published 2023)
Counter-ions that a name gives are not always drawn.

Experiments:
ISC-enriched organoids [1] = experiment: Primary screen, 384-well 2.5-D organoid differentiation (ENR+CD, 6 days): basal lysozyme secretion (LYZ.NS); format: cell-based, murine; details: primary screen; for Dose.FC.LYZ.NS: FC vs plate median; for Z.LYZ.NS: standard z score; for SSMD.LYZ.NS: strictly standardized mean difference
Text: (§1) High-throughput screening.

ISC-enriched organoids [2] = experiment: Primary screen, 384-well 2.5-D organoid differentiation (ENR+CD, 6 days, Target Selective Inhibitor Library, vs whole-plate median): ATP (CellTiter-Glo 3D, CTG); details: primary screen; for Dose.FC.CTG: FC vs plate median; for Z.CTG: standard z score; for SSMD.CTG: strictly standardized mean difference
ISC-enriched organoids [3] = experiment: Primary screen, 384-well 2.5-D organoid differentiation (ENR+CD, 6 days): carbachol-induced lysozyme secretion (LYZ.S); format: cell-based, murine; details: primary screen; for Dose.FC.LYZ.S: FC vs plate median; for Z.LYZ.S: standard z score; for SSMD.LYZ.S: strictly standardized mean difference
Text: as §1

[4] = 1st of the 4 dose lines of the treatment (dose not given)
[5] = 2nd of the 4 dose lines of the treatment (dose not given)
[6] = 3rd of the 4 dose lines of the treatment (dose not given)
[7] = 4th of the 4 dose lines of the treatment (dose not given)

Compound	SSMD.LYZ.NS (ISC-enriched organoids [1]; [4])	SSMD.LYZ.NS (ISC-enriched organoids [1]; [5])	SSMD.LYZ.NS (ISC-enriched organoids [1]; [6])	SSMD.LYZ.NS (ISC-enriched organoids [1]; [7])	Z.CTG (ISC-enriched organoids [2]; Dose 0.08 uM)	Z.CTG (ISC-enriched organoids [2]; Dose 0.40 uM)	Z.CTG (ISC-enriched organoids [2]; Dose 2.00 uM)	Z.CTG (ISC-enriched organoids [2]; Dose 10.00 uM)	SSMD.CTG (ISC-enriched organoids [2]; [4])	SSMD.CTG (ISC-enriched organoids [2]; [5])	SSMD.CTG (ISC-enriched organoids [2]; [6])	SSMD.CTG (ISC-enriched organoids [2]; [7])	Z.LYZ.S (ISC-enriched organoids [3]; [4])	Z.LYZ.S (ISC-enriched organoids [3]; [5])	Z.LYZ.S (ISC-enriched organoids [3]; [6])	Z.LYZ.S (ISC-enriched organoids [3]; [7])	SSMD.LYZ.S (ISC-enriched organoids [3]; [4])	SSMD.LYZ.S (ISC-enriched organoids [3]; [5])	SSMD.LYZ.S (ISC-enriched organoids [3]; [6])	SSMD.LYZ.S (ISC-enriched organoids [3]; [7])	also measured
CNC(=O)[C@H](Cc1c[nH]c2ccccc12)NC(=O)[C@@H](CC(=O)NO)CC(C)C [Ilomastat (GM6001, Galardin)]	0.305	−0.056	0.066	−0.635	0.470	0.389	0.216	−0.264	0.482	0.406	0.321	−0.348	1.385	0.754	0.153	−0.502	1.175	0.580	0.164	−0.329	Dose.FC.LYZ.NS (ISC-enriched organoids [1]; Dose 0.08 uM): 0.055 log 2 fold change; Z.LYZ.NS (ISC-enriched organoids [1]; Dose 0.08 uM): 0.482; Dose.FC.LYZ.NS (ISC-enriched organoids [1]; Dose 0.40 uM): −0.011 log 2 fold change; Z.LYZ.NS (ISC-enriched organoids [1]; Dose 0.40 uM): −0.092; Dose.FC.LYZ.NS (ISC-enriched organoids [1]; Dose 2.00 uM): 0.007 log 2 fold change; Z.LYZ.NS (ISC-enriched organoids [1]; Dose 2.00 uM): 0.064; Dose.FC.LYZ.NS (ISC-enriched organoids [1]; Dose 10.00 uM): −0.106 log 2 fold change; Z.LYZ.NS (ISC-enriched organoids [1]; Dose 10.00 uM): −0.919; Dose.FC.CTG (ISC-enriched organoids [2]; Dose 0.08 uM): 0.197 log 2 fold change; Dose.FC.CTG (ISC-enriched organoids [2]; Dose 0.40 uM): 0.163 log 2 fold change; Dose.FC.CTG (ISC-enriched organoids [2]; Dose 2.00 uM): 0.091 log 2 fold change; Dose.FC.CTG (ISC-enriched organoids [2]; Dose 10.00 uM): −0.110 log 2 fold change; Dose.FC.LYZ.S (ISC-enriched organoids [3]; Dose 0.08 uM): 0.214 log 2 fold change; Dose.FC.LYZ.S (ISC-enriched organoids [3]; Dose 0.40 uM): 0.117 log 2 fold change; Dose.FC.LYZ.S (ISC-enriched organoids [3]; Dose 2.00 uM): 0.024 log 2 fold change; Dose.FC.LYZ.S (ISC-enriched organoids [3]; Dose 10.00 uM): −0.078 log 2 fold change
CCOC(=O)[C@H](CCc1ccccc1)N[C@@H](C)C(=O)N1C(=O)N(C)C[C@H]1C(=O)O [Imidapril HCl]	−0.047	0.004	0.101	−0.541	−0.796	−0.354	−0.564	−0.543	−1.054	−0.525	−0.548	−0.699	−0.274	0.702	−0.226	−0.487	−0.269	0.315	−0.262	−0.404	
NC(=O)c1ccc(I)c([N+](=O)[O-])c1 [Iniparib (BSI-201)]	0.375	0.003	0.109	−0.163	0.810	0.432	0.375	0.583	0.883	0.347	0.475	0.721	0.205	0.229	−0.006	−0.062	0.148	0.247	−0.005	−0.070	Dose.FC.LYZ.NS (ISC-enriched organoids [1]; Dose 0.08 uM): 0.042 log 2 fold change; Z.LYZ.NS (ISC-enriched organoids [1]; Dose 0.08 uM): 0.364; Dose.FC.LYZ.NS (ISC-enriched organoids [1]; Dose 0.40 uM): 0.000 log 2 fold change; Z.LYZ.NS (ISC-enriched organoids [1]; Dose 0.40 uM): 0.003; Dose.FC.LYZ.NS (ISC-enriched organoids [1]; Dose 2.00 uM): 0.016 log 2 fold change; Z.LYZ.NS (ISC-enriched organoids [1]; Dose 2.00 uM): 0.138; Dose.FC.LYZ.NS (ISC-enriched organoids [1]; Dose 10.00 uM): −0.016 log 2 fold change; Z.LYZ.NS (ISC-enriched organoids [1]; Dose 10.00 uM): −0.139; Dose.FC.CTG (ISC-enriched organoids [2]; Dose 0.08 uM): 0.339 log 2 fold change; Dose.FC.CTG (ISC-enriched organoids [2]; Dose 0.40 uM): 0.181 log 2 fold change; Dose.FC.CTG (ISC-enriched organoids [2]; Dose 2.00 uM): 0.157 log 2 fold change; Dose.FC.CTG (ISC-enriched organoids [2]; Dose 10.00 uM): 0.244 log 2 fold change; Dose.FC.LYZ.S (ISC-enriched organoids [3]; Dose 0.08 uM): 0.032 log 2 fold change; Dose.FC.LYZ.S (ISC-enriched organoids [3]; Dose 0.40 uM): 0.035 log 2 fold change; Dose.FC.LYZ.S (ISC-enriched organoids [3]; Dose 2.00 uM): −0.001 log 2 fold change; Dose.FC.LYZ.S (ISC-enriched organoids [3]; Dose 10.00 uM): −0.010 log 2 fold change
CCc1c2c(nc3ccc(OC(=O)N4CCC(N5CCCCC5)CC4)cc13)-c1cc3c(c(=O)n1C2)COC(=O)[C@]3(O)CC [Irinotecan HCl Trihydrate]	−0.182	−0.831	−1.832	−2.032	−0.199	−0.491	−0.758	−1.404	−0.305	−0.694	−1.060	−1.809	−0.261	−1.020	−1.895	−2.375	−0.311	−0.747	−1.550	−1.941	
CCc1c2c(nc3ccc(OC(=O)N4CCC(N5CCCCC5)CC4)cc13)-c1cc3c(c(=O)n1C2)COC(=O)[C@]3(O)CC [Irinotecan]	−0.217	−0.556	−1.415	−1.102	−0.265	−1.872	−1.875	−2.951	−0.378	−1.558	−1.491	−2.716	−0.023	−0.939	−1.596	−1.624	−0.018	−0.721	−1.400	−1.217	
Cc1ccc(C(=O)N(CCCN)[C@@H](c2nc3cc(Cl)ccc3c(=O)n2Cc2ccccc2)C(C)C)cc1 [Ispinesib (SB-715992)]	−1.681	−1.354	−1.617	−1.093	−0.772	−1.238	−1.220	−1.704	−0.942	−0.971	−1.118	−1.236	−1.753	−1.914	−1.859	−1.850	−1.495	−1.509	−1.657	−1.525	Dose.FC.LYZ.NS (ISC-enriched organoids [1]; Dose 0.08 uM): −0.222 log 2 fold change; Z.LYZ.NS (ISC-enriched organoids [1]; Dose 0.08 uM): −1.931; Dose.FC.LYZ.NS (ISC-enriched organoids [1]; Dose 0.40 uM): −0.191 log 2 fold change; Z.LYZ.NS (ISC-enriched organoids [1]; Dose 0.40 uM): −1.663; Dose.FC.LYZ.NS (ISC-enriched organoids [1]; Dose 2.00 uM): −0.196 log 2 fold change; Z.LYZ.NS (ISC-enriched organoids [1]; Dose 2.00 uM): −1.709; Dose.FC.LYZ.NS (ISC-enriched organoids [1]; Dose 10.00 uM): −0.201 log 2 fold change; Z.LYZ.NS (ISC-enriched organoids [1]; Dose 10.00 uM): −1.752; Dose.FC.CTG (ISC-enriched organoids [2]; Dose 0.08 uM): −0.323 log 2 fold change; Dose.FC.CTG (ISC-enriched organoids [2]; Dose 0.40 uM): −0.518 log 2 fold change; Dose.FC.CTG (ISC-enriched organoids [2]; Dose 2.00 uM): −0.511 log 2 fold change; Dose.FC.CTG (ISC-enriched organoids [2]; Dose 10.00 uM): −0.713 log 2 fold change; Dose.FC.LYZ.S (ISC-enriched organoids [3]; Dose 0.08 uM): −0.271 log 2 fold change; Dose.FC.LYZ.S (ISC-enriched organoids [3]; Dose 0.40 uM): −0.296 log 2 fold change; Dose.FC.LYZ.S (ISC-enriched organoids [3]; Dose 2.00 uM): −0.287 log 2 fold change; Dose.FC.LYZ.S (ISC-enriched organoids [3]; Dose 10.00 uM): −0.286 log 2 fold change
CCn1c(=O)c2c(nc(/C=C/c3ccc(OC)c(OC)c3)n2C)n(CC)c1=O [Istradefylline]	−0.084	−0.362	−0.012	−0.336	−0.107	0.158	−0.375	−0.091	−0.113	0.225	−0.412	−0.106	−0.190	−0.560	−0.621	−0.367	−0.139	−0.661	−0.578	−0.289	
